The values below come from patent US11433081B2 (priority 2018, dated 2022).

This assay deals with Chronic Pain. The note with it: human, in vivo, po.

With `COc1ccc2c3c1O[C@H]1C(=O)CC[C@@]4(O)[C@@H](C2)N(C)CC[C@]314` [Oxycodone], the Pain level is 3 /10.
